In US20100093060A1, “GROWTH OF MICROORGANISMS IN CELLULOSIC MEDIA” (priority 2008, published 2010):
Residues, ends and D or L forms follow the SMILES beside them.

Experiments:
[1] = tested on: Gram-negative and Gram-positive bacteria; settings: minimal antibacterial effects; typical range; cited from earlier work
[2] = Determination of Critical Micelle Concentration (surface tension, Wilhelmy plate); format: physicochemical; settings: triple distilled water, pH 10, 25±1° C.
Experimental: Determination of Critical Micelle Concentration. […] Surface tension was measured at 25±1° C. using the Wilhelmy plate technique with a sandblasted platinum plate as the sensor coupled to a Cahn microbalance. The entire assembly was kept in a draft-free plastic cage at a temperature of 25±1° C.

CC(C)CCCCCCCCC[C@@H]1CC(=O)N[C@@H](CCC(=O)O)C(=O)N[C@@H](CC(C)C)C(=O)N[C@H](CC(C)C)C(=O)N[C@@H](C(C)C)C(=O)N[C@@H](CC(=O)O)C(=O)N[C@H](CC(C)C)C(=O)N[C@@H](CC(C)C)C(=O)O1 [surfactin] (HELM PEPTIDE1{E.L.[dL].V.D.[dL].L}|CHEM1{[CC(C)CCCCCCCCC[C@H](CC(=O)[*:1])O[*:2]]}$PEPTIDE1,CHEM1,1:R1-1:R1|PEPTIDE1,CHEM1,7:R2-1:R2$$$V2.0)
minimum inhibitory concentration (MIC) [1]: 12 to 50 µg/mL

CCCCCCCCCCCCCC(=O)N[C@@H](CCC(=O)O)C(=O)O [myristoyl glutamate]
Critical Micelle Concentration (CMC) [2]: 14.1 mM

CCCCCCCCCCCC(O)CC(=O)N[C@@H](CCC(=O)O)C(=O)O (stereo partly drawn) [FA-Glu, β-hydroxy myristoyl glutamate]
Critical Micelle Concentration (CMC) [2]: 1.3 mM
